Assay results published in PMC3842914, “Meleagrin, a New FabI Inhibitor from Penicillium chryosogenum with at Least One Additional Mode of Action” (PLoS ONE, 2013).
Values after ≈ are worked out from the molar mass of the structure shown. Like-named read-outs stand apart in the source and are kept apart here.

Legend:
[1] = test system: E. coli EW1b(pBAD-fabK); assay: Overexpression assay, MIC for fabK-overexpressing E. coli EW1b (pBAD-fabK); type: cell-based; conditions: Escherichia coli
Description: (§1) Whole-cell antimicrobial activity was determined by broth microdilution as described previously. The test strains except for S. pneumoniae were grown to mid-log phase in Mueller–Hinton broth and diluted 1,000-fold in the same medium. Cells (10^5/mL) were inoculated into Mueller–Hinton broth and dispensed at 0.2 mL/well into a 96-well microtiter plate. S. pneumoniae was grown in tryptic soy broth supplemented with 5% sheep blood. MICs were determined in triplicate by serial 2-fold dilutions of test compounds. […] Bacterial growth was determined by measuring the absorption at 650 nm by using a microtiter ELISA reader.
(§2) An overexpression assay using S. aureus RN4220, S. aureus RN4220 (pE194), and S. aureus RN4220 (pE194-fabI) was conducted to perform target validation of FabI inhibitors as described previously. Additionally, both fabI- and fabK-overexpressing E. coli were constructed to test a multitarget effect of the compounds. The wild-type fabI gene from the genomic DNA of E. coli W3110 was amplified by PCR by using the primers 5′-[…]-3′ and 5′-[…]-3′. The wild-type fabK gene from the genomic DNA of S. pneumoniae KCTC 5412 was amplified by PCR by using the primers 5′-[…]-3′ and 5′-[…] […]-3′. The resulting products were cloned into the pBAD-TOPO TA expression vector (Invitrogen, Carlsbad, CA, USA) to yield the pBAD-fabI and pBAD-fabK recombinant plasmids, which placed the expression of the genes fabI and fabK, respectively, under the control of the arabinose promoter. Recombinant pBAD-fabI and pBAD-fabK were then introduced into the pump-negative (tolC) E. coli EW1b via electroporation to generate E. coli EW1b (pBAD-fabI) and E. coli EW1b (pBAD-fabK), respectively.

[2] = test system: E. coli EW1b; assay: Overexpression assay, MIC for pump-negative (tolC) E. coli EW1b; type: cell-based; conditions: Escherichia coli
Description: as §1, §2

[3] = test system: E. coli EW1b(pBAD); assay: Overexpression assay, MIC for vector-containing E. coli EW1b (pBAD); type: cell-based; conditions: Escherichia coli
Description: as §1, §2

[4] = test system: S. pneumoniae KCTC 3932; assay: Inhibition of macromolecular biosynthesis (radiolabeled precursor incorporation) in S. pneumoniae; type: cell-based, Streptococcus pneumoniae; conditions: drugs at 2 times the MIC
Description: (§3) To monitor the effects of compound 1 on lipid, DNA, RNA, protein, and cell wall biosynthesis, its effects on the incorporation of [1-^14C] acetate (50 mCi/mmol), [2-^14C] thymidine (59.8 mCi/mmol), [U-^14C] uridine (539 mCi/mmol), L-[U-^14C] leucine (306 mCi/mmol) or L-[U-^14C] isoleucine (329 mCi/mmol), and N-acetyl-D-[1-^14C] glucosamine (58.1 mCi/mmol) into S. aureus and S. pneumoniae were measured as described previously. S. aureus was exponentially grown to an A650 of 0.2 in Mueller–Hinton broth. S. pneumoniae was grown in tryptic soy broth supplemented with 5% sheep blood. […] An equal volume of DMSO solvent was added to the untreated control. After incubation with the radiolabeled precursors at 37°C for 1 h, followed by centrifugation, the cell pellets were washed twice with PBS buffer. After acetate incorporation, the total cellular lipids were extracted with chloroform-methanol-water. The incorporated radioactivity in the chloroform phase was measured by scintillation counting. For the other precursors, incorporation was terminated by adding 10% (w/v) TCA and cooling on ice for 20 min. The precipitated material was collected on Whatman GF/C glass microfiber filters, washed with TCA and ethanol, dried, and counted using a scintillation counter. The total counts incorporated at 1 h of incubation without inhibitors ranged from >7,000 for [U-^14C] uridine to <13,000 for [1-^14C] acetate. […] In all experiments, known antibacterial agents were included as positive controls.

[5] = test system: S. aureus KCTC 1916; assay: MIC, S. aureus KCTC 1916; type: cell-based; conditions: Staphylococcus aureus, KCTC1916
Description: as §1

[6] = test system: E. coli EW1b(pBAD-fabI); assay: Overexpression assay, MIC for fabI-overexpressing E. coli EW1b (pBAD-fabI); type: cell-based; conditions: for MIC for fabI-overexpressing E. coli relative to wild-type and vector-containing E. coli: E. coli EW1b (pBAD-fabI) vs E. coli EW1b and E. coli EW1b (pBAD), in the presence of arabinose; for MIC: Escherichia coli
Description: as §1, §2

[7] = test system: S. aureus RN4220; type: cell-based, Staphylococcus aureus; conditions: exposure 4× MIC
Description: (§4) The frequency of spontaneous resistance was determined for S. aureus RN4220, S. aureus KCTC 1916, and E. coli KCTC 1942. […] The organisms were grown to log-phase by dilution of an overnight culture in fresh media and re-incubation at 35°C until the cultures reached a cell density of approximately 10^9 CFU/mL. […] Inocula were determined by applying 100 μl of 10-fold dilutions on solid media without drug. Colony-forming units were counted after 48 h incubation at 35°C. The ratio of the number of colonies on drug-containing plates to that on control plates was calculated as the in vitro frequency of isolation of CFU.

[8] = test system: S. aureus KCTC 1916; type: cell-based, Staphylococcus aureus; conditions: exposure 4× MIC
Description: as §4

[9] = target: T1, S. aureus FabI (Staphylococcus aureus, UniProt Q6GI75); assay: Fluorescence quenching assay (direct binding); conditions: increasing amounts of compound; FabI fluorescence at 307 nm
T1 construct: made in house
T1 sequence (Q6GI75 1-256): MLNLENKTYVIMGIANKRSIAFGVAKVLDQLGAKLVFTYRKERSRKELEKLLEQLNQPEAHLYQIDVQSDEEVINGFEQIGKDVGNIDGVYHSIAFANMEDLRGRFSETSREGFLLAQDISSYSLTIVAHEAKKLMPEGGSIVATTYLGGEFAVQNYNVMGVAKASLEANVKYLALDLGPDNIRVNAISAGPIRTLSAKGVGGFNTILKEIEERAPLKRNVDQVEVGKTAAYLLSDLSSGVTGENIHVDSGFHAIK
Description: Fluorescence spectra were measured using a SHIMADZU fluorescence spectrophotometer (model RF-5310PC). […] Protein quenching was monitored at 25°C by using 5-nm excitation and 5-nm emission wavelength. The excitation wavelength was 280 nm, and the emission spectra were measured between 290 and 430 nm.

[10] = test system: S. aureus RN4220; assay: Inhibition of macromolecular biosynthesis (radiolabeled precursor incorporation) in S. aureus; type: cell-based, Staphylococcus aureus; conditions: drugs at 2 times the MIC
Description: as §3

[11] = test system: E. coli KCTC 1924; type: cell-based; conditions: exposure 4× MIC
Description: as §4

[12] = MIC against other gram-positive bacteria; type: cell-based; conditions: Staphylococcus aureus
Description: as §1

[13] = read-out: MIC E. coli EW1b(pBAD-fabK) (+) Ara
[14] = read-out: MIC E. coli EW1b(pBAD-fabK) (−) Ara
[15] = read-out: MIC E. coli EW1b (+) Ara
[16] = read-out: MIC E. coli EW1b (−) Ara
[17] = read-out: MIC E. coli EW1b(pBAD) (+) Ara
[18] = read-out: MIC E. coli EW1b(pBAD) (−) Ara
[19] = read-out: MIC E. coli EW1b(pBAD-fabI) (+) Ara
[20] = read-out: MIC E. coli EW1b(pBAD-fabI) (−) Ara

Structure (SMILES) | MIC [1, 13] | MIC [1, 14] | MIC [2, 15] | MIC [2, 16] | MIC [3, 17] | MIC [3, 18] | MIC [5] | MIC for fabI-overexpressing E. coli relative to wild-type and vector-containing E. coli [6] | MIC [6, 19] | MIC [6, 20] | Frequency of resistance [7] | Frequency of resistance [8] | Fluorescence quenching of S. aureus FabI [9] | Inhibition of precursor incorporation, [1-14C] Acetate [10] | Frequency of resistance [11] | also measured
C=CC(C)(C)C12C=C(O)C(=O)N3/C(=C/c4cnc[nH]4)C(=O)NC31N(OC)c1ccccc12 (stereo not shown) [Compound 1, meleagrin] | 32 µg/mL (≈ 73.8 µM) | 32 µg/mL (≈ 73.8 µM) | 32 µg/mL (≈ 73.8 µM) | 32 µg/mL (≈ 73.8 µM) | 32 µg/mL (≈ 73.8 µM) | 32 µg/mL (≈ 73.8 µM) | 32 µg/mL (≈ 73.8 µM) | 4 fold | 128 µg/mL (≈ 295 µM) | 32 µg/mL (≈ 73.8 µM) | <1.62×10^−10 | <1.03×10^−10 | same pattern as compound 5 | 62% | <6.7×10^−9 | Inhibition of precursor incorporation, L-[U-14C] Isoleucine [4]: 9%; Inhibition of precursor incorporation, N-Acetyl-D-[1-14C] Glucosamine [4]: 3%; Inhibition of precursor incorporation, [1-14C] Acetate [4]: 65%; Inhibition of precursor incorporation, [2-14C] Thymidine [4]: 15%; Inhibition of precursor incorporation, [U-14C] Uridine [4]: 2%; Inhibition of precursor incorporation, L-[U-14C] Isoleucine [10]: 6%; Inhibition of precursor incorporation, N-Acetyl-D-[1-14C] Glucosamine [10]: 25%; Inhibition of precursor incorporation, [2-14C] Thymidine [10]: 13%; Inhibition of precursor incorporation, [U-14C] Uridine [10]: 17%
C=CC(C)(C)C12C=C(OC)C(=O)N3/C(=C/c4cnc[nH]4)C(=O)N(C)C31N(OC)c1ccccc12 (stereo not shown) [Compound 5, O,N^14-dimethylmeleagrin] | 16 µg/mL (≈ 34.7 µM) | 16 µg/mL (≈ 34.7 µM) | 16 µg/mL (≈ 34.7 µM) | 16 µg/mL (≈ 34.7 µM) | 16 µg/mL (≈ 34.7 µM) | 16 µg/mL (≈ 34.7 µM) |  | 4 fold | 64 µg/mL (≈ 139 µM) | 16 µg/mL (≈ 34.7 µM) | <1.62×10^−10 | <1.03×10^−10 | fluorescence intensity decreased gradually |  | <6.7×10^−9 | MIC ([12]; other gram-positive bacteria incl. MRSA and QRSA strains, read-out: MIC): 8 to 16 µg/mL (≈ 17.3 to 34.7 µM); MIC ([5]; S. aureus KCTC 1916, read-out: MIC): 16 µg/mL (≈ 34.7 µM)
C=CC(C)(C)C12C=C(OC)C(=O)N3/C(=C/c4cnc[nH]4)C(=O)N(C)C31Nc1ccccc12 (stereo not shown) [Compound 6, O,N^14-dimethylglandicolin] |  |  |  |  |  |  |  |  |  |  |  |  |  |  |  | MIC [12]: 8 to 16 µg/mL (≈ 18.5 to 37.1 µM)
C=CC(C)(C)C12C=C(O)C(=O)N3/C(=C/c4cnc[nH]4)C(=O)NC31Nc1c(Br)cccc12 (stereo not shown) [Compound 7] |  |  |  |  |  |  |  |  |  |  |  |  | did not exhibit such an effect |  |  | 
Oc1cc(Cl)ccc1Oc1ccc(Cl)cc1Cl [Triclosan, reference compound] | > 0.08 µg/mL | 0.002 µg/mL (≈ 0.00691 µM) | 0.002 µg/mL (≈ 0.00691 µM) | 0.002 µg/mL (≈ 0.00691 µM) | 0.002 µg/mL (≈ 0.00691 µM) | 0.002 µg/mL (≈ 0.00691 µM) | 0.01 µg/mL (≈ 0.0345 µM) |  | > 0.08 µg/mL | 0.002 µg/mL (≈ 0.00691 µM) |  |  | resulted in fluorescence quenching | 87% |  | 
